Measured values: publication PMC11766867, “Novel 2-Thiazolylhydrazone with Druggable Properties for Antifungal Application” (Journal of Fungi, 2025)
In brackets after ≈: the same amount, converted by molar mass. Where two headings read alike, the source gives them in different places. Each block holds one compound with its values, some of them ahead of it.

Tests used:
C. albicans SC5314 = assay: Broth microdilution MIC (CLSI M27-A3 with modifications); assay type: cell-based; settings: Candida albicans, 35 °C, 48 h, visual endpoint, read-out: Minimal Inhibitory Concentration (MIC) C. albicans
Experimental: (§1) Broth microdilution testing was conducted following the guidelines in the CLSI document M27-A3 (2008) with modifications. Briefly, the following yeast were used in the present study: C. albicans SC5314, C. tropicalis ATCC 750, Candidozyma (Candida) auris COLO 01, C. parapsilosis ATCC 22019, Pichia kudravzevii (C. krusei) ATCC 20298, C. gattii ATCC 24065, C. neoformans ATCC 24067, and S. brasiliensis (189). All fungus strains were stored at a temperature of −80 °C. Before conducting the experiments, the strains were cultivated on Sabouraud dextrose agar (HiMedia, Mumbai, India) at 35 °C to ensure their purity and viability. The yeast phase of S. brasiliensis was grown on brain–heart infusion agar (BHI; Difco, Detroit, MI, USA) with two successive passages of 7 days at 35 °C and CO2 5% [11]. The compounds were tested at concentrations of 0.125–250 µg/mL. For comparative antifungal controls, fluconazole (Sigma-Aldrich, St. Louis, MO, USA), itraconazole (Sigma-Aldrich, St. Louis, MO, USA), and caspofungine (Sigma-Aldrich, St. Louis, MO, USA) were included. The plates were incubated at 35 °C for 48 h for yeast and for 7 days for S. brasiliensis at 35 °C and CO2 5%. The tests were performed in triplicate. The endpoints were determined visually by comparison with the endpoints of the drug-free growth-control well. The value of the minimum inhibitory concentration (MIC) was defined as the lowest extract concentration at which the well was optically clear and was expressed in µg/mL.

C. tropicalis ATCC 750 = assay: as above; assay type: cell-based; settings: Candida tropicalis, ATCC750; 35 °C, 48 h, visual endpoint; read-out: Minimal Inhibitory Concentration (MIC) C. tropicalis
Experimental: as §1

C. gattii ATCC 24065 = assay: as above; assay type: cell-based; settings: Cryptococcus gattii, ATCC24065; 35 °C, 48 h, visual endpoint; read-out: Minimal Inhibitory Concentration (MIC) C. gattii
Experimental: as §1

[1] = test system: Pichia kudravzevii (C. krusei) ATCC 20298; assay: as above; assay type: cell-based; settings: ATCC20298, 35 °C, 48 h, visual endpoint, read-out: Minimal Inhibitory Concentration (MIC) P. kudravzevii
Experimental: as §1

[2] = test system: C. parapsilosis ATCC 22019; assay: as above; assay type: cell-based; settings: Lodderomyces parapsilosis, ATCC22019; 35 °C, 48 h, visual endpoint; read-out: Minimal Inhibitory Concentration (MIC) C. parapsilosis
Experimental: as §1

C. neoformans ATCC 24067 = assay: as above; assay type: cell-based; settings: Cryptococcus neoformans, ATCC24067; 35 °C, 48 h, visual endpoint; read-out: Minimal Inhibitory Concentration (MIC) C. neoformans
Experimental: as §1

[3] = test system: Candidozyma (Candida) auris COLO 01; assay: organism not typed; assay type: cell-based; settings: 35 °C, 48 h, visual endpoint; for MIC: read-out: Minimal Inhibitory Concentration (MIC) C. auris
Experimental: as §1

[4] = Saturation shake-flask solubility method; assay type: physicochemical; settings: for solubility at 24 h: aqueous USP buffer, thermodynamic from solid, n = 3, read-out: Average Solubility mg/mL (±SD)
Experimental: The equilibrium solubility of RW3 samples was assessed using the shake-flask method. The samples were dispersed in buffers described in the United States Pharmacopeia at pH values of 2.0, 4.5, and 6.8. For each reported solubility result, three independent shake-flask experiments were carried out in parallel. For each experiment, the solid sample was added carefully using a spatula to 2 mL of the aqueous buffer in a glass vial, while stirring, until a heterogeneous system (solid sample and liquid) was obtained. The solution containing solid excess of the sample was then capped, and stirred at 37 °C, 100 rpm, for 24 h in orbital shaker (Tecnal, Campinas, Brazil). An aliquot of 1 mL of the suspension was centrifuged, and the supernatant was then collected and filtered through a 0.2 µm PVDF filter. The resulting solution was then diluted 200× in the mobile phase, and the concentration of the sample in each aliquot was measured by the HPLC method. The RW3 concentrations were determined by injections of 10 µL of the samples via HPLC, using a Waters Alliance system (New Castle, DE, USA). Chromatographic separations were obtained using a PhenoSphere-NEXT® 5 µm C18 column (150 mm; 4,6 mm; Phenomenex®, Torrance, CA, USA) at 40° C. The mobile phase (1 mL/min) was composed of phosphate buffer 20 mM pH 4.0 and acetonitrile (50:50 v/v). The wavelength was set at 308 nm. The HPLC method employed was evaluated for linearity, precision, accuracy, and selectivity.
The determination of the solubility under physiological conditions, particularly considering the different pH levels throughout the gastrointestinal tract, is one of the most important biopharmaceutical parameters that must be generated during the early stages of developing a new drug for oral administration. In this study, the solubility determination of RW3 was carried out using the miniaturized shake flask test, as only a small amount of the compound under investigation was available. In the literature, there are publications that have successfully employed the miniaturized test.

S. brasiliensis (189) = assay: Broth microdilution MIC (CLSI M27-A3 with modifications), yeast phase; assay type: cell-based; settings: Sporothrix brasiliensis, 168 h, 7 days at 35 °C and CO2 5%, read-out: Minimal Inhibitory Concentration (MIC) S. brasiliensis
Experimental: as §1, with “The value of the minimum inhibitory concentration (MIC) was defined as the lowest extract concentration at which the well was optically clear and was expressed in µg/mL.” left out

chorioallantoic membrane = assay: HET-CAM assay (Hen's Egg Test on the Chorioallantoic Membrane), German protocol; assay type: in vivo, Gallus gallus domesticus; settings: RW3 at 100 µM
Experimental: Gallus gallus domesticus eggs (n = 3) at the eighth day of embryonic development were incubated at 37 ± 2 °C and 50% humidity until the test. On the tenth day, the solutions of RW3 (100 µM), 1% DMSO in saline (diluent), 0.1 mol/L NaOH (positive control), and saline solution (negative control) were placed on the chorioallantoic membrane. Following the application of 300 µL of each solution, according to the German protocol, the changes in the membrane were recorded for 300 s, indicating the time of onset of each observed phenomenon (hemorrhage, lysis, and coagulation) and using the following formula to calculate the Irritation Score (IS) (Equation (1)). Each experiment was repeated two times.IS = (301 − sH)/300 × 5 + (301 − sL)/300 × […] + (301 − sC)/300 × 9,(1) where H = hemorrhage, L—lysis, C = coagulation, and s = start second.
Additionally, to assess the possibility of irritation caused by RW3, the Hen’s Egg Test on the Chorioallantoic Membrane (HET-CAM) was performed. The HET-CAM assay is an in vivo semiquantitative test to evaluate the anti-inflammatory potential and anti-irritant properties, as well as the ocular toxicity of compounds/formulations. The benefits of this test include its simplicity, rapid execution, ease of use, and relatively low cost.

[5] = In vitro Caco-2 permeability assay; assay type: in vitro ADME, human; settings: human, Caco-2
Experimental: (§2) The Caco-2 cells (from ATCC) were cultured in 12-well Transwell® (Corning Incorporated, New York, NY, USA) insert filters for 21 days at a seeding density of 5 × 10^4 cells/cm^2 to achieve confluence and differentiation. The integrity of the monolayer was examined by measuring the transepithelial electrical resistance (TEER) with an epithelial voltammeter Millicell-ERS (Merck SA—German, Darmstadt, Germany). Only cell monolayers with a TEER above […] were used for the transport assays.
(§3) Transport experiments were conducted by adding 10 µg/mL RW3 in HBSS buffer at pH 6.8 to the apical compartments of the Transwell® plates (Corning, Corning, NY, USA), while the basolateral buffer was maintained at pH 7.4. The plates were agitated in an orbital shaker at 37 °C (100 rpm). Samples (100 µL) were collected from both the basolateral and apical sides at 30, 60, 90, 120, and 180 min. The apparent permeability coefficients (Papp, cm/s) were calculated using the Equation (2):Papp = […](2) where VR is the volume of the receiver compartment (basolateral or apical), DQ/Dt is the linear appearance rate of the compound on the receiver chamber (in ng/cm^3/s), A is the membrane surface area (cm^2), and C0 is the initial concentration in the donor compartment (ng/cm^3). This calculation requires that the sink conditions are fulfilled; therefore, only receiver concentrations below 10% of the donor concentration were employed in the calculations.

Caco-2 cells [6] = assay: In vitro Caco-2 permeability assay; assay type: in vitro ADME, human; settings: high permeability: Papp > 10 × 10^−6 cm/s
Experimental: as §2, §3

[7] = In vitro Caco-2 cytotoxicity (MTT, ISO 10993-5); assay type: cell-based, human; settings: human, Caco-2 cells, 4 h, MTT, read-out: cell viability
Experimental: (§4) In vitro cytotoxicity assays were carried out following the protocol outlined in the ISO 10993-5 guideline (ISO, 2022). The human colon carcinoma cell line, Caco-2 cells (from ATCC), were cultured in 96-well plates for 24 h at a seeding density of 2 × 10^4 cells/well. The RW3 compound was dissolved in DMEM without phenol to prepare samples of 10, 25, and 50 µg/mL concentrations. Six replicates of each concentration for RW3 were assessed. This range of concentrations was chosen for reasons associated with the subsequent permeability tests. The experiments began by replacing the culture medium in each well with 100 µL of sample or control solutions, followed by a 4 h incubation at 37 °C in a CO2 incubator. Then, the solutions in each well were aspirated, and the cells were further incubated for 2 h with 30 µL of MTT solution (5 mg/mL, Sigma–Aldrich Corp., St. Louis, MO, USA, in DMEM and PBS buffer, 9:1 v/v). Next, formazan crystals were solubilized with 70 µL of isopropyl alcohol acidified with hydrochloric acid and quantified spectrophotometrically at 570 and 690 nm (Spectra Fluor plate reader, Tecan, Grödig, Austria). Cell viability was calculated based on the measured absorbance relative to the absorbance of the cells exposed to the negative controls (DMEM), which represented 100% cell viability, and for the positive control, we employed DMSO 50% in DMEM, which represented 0% cell viability.

Caco-2 cells [8] = assay: In vitro Caco-2 cytotoxicity (MTT, ISO 10993-5); assay type: cell-based, human; settings: 10, 25 and 50 µg/mL; non-cytotoxic if viability exceeds 70% (ISO 10993-5)
Experimental: as §4

MIC (C. albicans SC5314): 0.5 µg/mL (≈ 1.63 µM)
MIC (C. tropicalis ATCC 750): 0.25 µg/mL (≈ 0.816 µM)
MIC (C. gattii ATCC 24065): 2 µg/mL (≈ 6.53 µM)
MIC [1]: 32 µg/mL (≈ 104 µM)
MIC [2]: 1 µg/mL (≈ 3.27 µM)
MIC (C. neoformans ATCC 24067): 2 µg/mL (≈ 6.53 µM)
MIC [3]: 64 µg/mL (≈ 209 µM)
Structure (SMILES): OC(Cn1cncn1)(Cn1cncn1)c1ccc(F)cc1F [Fluconazole, fluconazole, reference compound]

Structure (SMILES): CC[C@H](C)C[C@H](C)CCCCCCCCC(=O)N[C@H]1C[C@@H](O)[C@@H](NCCN)NC(=O)[C@@H]2[C@@H](O)CCN2C(=O)[C@H]([C@H](O)CCN)NC(=O)[C@H]([C@H](O)[C@@H](O)c2ccc(O)cc2)NC(=O)[C@@H]2C[C@@H](O)CN2C(=O)[C@H]([C@@H](C)O)NC1=O [Caspofungin, caspofungine]
Minimal Inhibitory Concentration (MIC) C. auris [3]: 0.05 µg/mL

solubility at 24 h ([4]; aqueous buffer, buffer pH 4.5, 37 °C): 1.01 ± 0.01 mg/mL (≈ 3720 µM)
solubility at 24 h ([4]; aqueous buffer, buffer pH 6.8, 37 °C): 2.76 ± 0.09 mg/mL (≈ 10200 µM)
solubility at 24 h ([4]; simulated gastric fluid, buffer pH 2.0, 37 °C): 0.67 ± 0.001 mg/mL (≈ 2470 µM)
maximum daily dose borderline for high solubility classification (BCS, dose/S0 ratio less than 250) ([4]; extrapolated from lowest solubility (pH 2.0)): 168 mg
MIC (C. albicans SC5314): 31.3 µg/mL (≈ 115 µM)
MIC (C. tropicalis ATCC 750): 125 µg/mL (≈ 461 µM)
MIC (C. gattii ATCC 24065): 7.8 µg/mL (≈ 28.8 µM)
MIC [1]: 15.6 µg/mL (≈ 57.5 µM)
MIC [2]: 125 µg/mL (≈ 461 µM)
MIC (C. neoformans ATCC 24067): 3.9 µg/mL (≈ 14.4 µM)
MIC (S. brasiliensis (189)): 15.6 µg/mL (≈ 57.5 µM)
MIC [3]: 15.6 µg/mL (≈ 57.5 µM)
Papp A→B at 180 min, 10 µg/mL ([5]; apical−basolateral, 10 µg/mL, apical pH 6.8, basolateral pH 7.4, n = 3): 23.1 ± 9.69 ×10⁻⁶ cm/s
Papp B→A at 180 min, 10 µg/mL ([5]; basolateral−apical, 10 µg/mL, n = 3): 17.7 ± 7.19 ×10⁻⁶ cm/s
efflux ratio at 180 min, 10 µg/mL ([5]; read-out: Ratio Efflux Papp B-A/Papp A-B): 0.76
permeability characterization (BCS) (Caco-2 cells [6]): high permeability compound
Structure (SMILES): CCOC(=O)Cc1csc(N/N=C(\C)C(=O)O)n1 [RW3, (E)-2-(2-(4-(2-Ethoxy-2-oxoethyl)thiazol-2-yl)hydrazineylidene)-Propanoic Acid]
Irritation Score (chorioallantoic membrane; 300 µL on chorioallantoic membrane, 300 s, mean of six eggs): 0.76
Classification (irritation potential) (chorioallantoic membrane; HET-CAM, German protocol): Non-irritant
viability at 4 h, 10 µg/mL ([7]; Caco-2, 10 µg/mL): 100%
viability at 4 h, 25 µg/mL ([7]; Caco-2, 25 µg/mL): 88%
viability at 4 h, 50 µg/mL ([7]; Caco-2, 50 µg/mL): 86%
cytotoxic effects on the Caco-2 cell line (Caco-2 cells [8]): no cytotoxic effects
